The record followed here is article PMC8308845, “Discovery of Novel Chemical Series of OXA-48 β-Lactamase Inhibitors by High-Throughput Screening” (Pharmaceuticals, 2021).

Values joined by “and” are separate entries in the source; they are usually repeats but may differ in a detail not shown here. Equal values may be shown once. Read-outs that look alike come from different tables or passages of the source.

What is called AC50 is the midpoint of the concentration-response curve, whichever way the signal moves. The low end stands for greater potency, the high end for weaker potency. What is called MIC is the lowest concentration found to suppress growth.

One test deals with T1, OXA-48 (Klebsiella pneumoniae, UniProt Q6XEC0).
T1 construct: made in house; host or cells: E. coli BL21(DE3), T7 expression system
T1 sequence (Q6XEC0 23-265, looked up): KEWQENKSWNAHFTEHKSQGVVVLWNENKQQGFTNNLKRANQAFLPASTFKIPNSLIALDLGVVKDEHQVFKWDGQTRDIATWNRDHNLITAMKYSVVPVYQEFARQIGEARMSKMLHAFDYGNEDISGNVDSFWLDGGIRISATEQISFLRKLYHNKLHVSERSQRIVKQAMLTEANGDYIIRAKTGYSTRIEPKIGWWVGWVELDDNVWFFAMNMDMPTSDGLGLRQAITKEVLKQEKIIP
Put plainly: OXA-48 primary enzymatic assay (nitrocefin substrate, fluorescence-quenching readout). In kind it is biochemical. The note with it: dose–response, median of triplicate wells; 15 min preincubation, 25 µM nitrocefin. As for the experimental part: After an initial pilot run (three plates, consisting of 960 randomly selected compounds), the primary screening of the subset plates was carried out at 20 µM in single point against OXA-48 enzyme in a nitrocefin-based assay, using the fluorescence-quenching readout. This enzymatic assay employs the cephalosporin nitrocefin as OXA-48 substrate and takes advantage of the fluorescent properties of white microtiter plates. Chromogenic nitrocefin is hydrolyzed by β-lactamases to yield a product with increased absorbance properties (~495 nm) that quenches the plate fluorescence by absorbing the plate’s emission light. In this assay, test compounds that inhibit OXA-48 catalytic activity are predicted to reduce nitrocefin quenching of plate fluorescence, resulting in a quantitative increase in well fluorescence (ON-system for inhibitors). The nitrocefin-based epi-absorbance readout system has been successfully applied in HTS campaigns on other β-lactamases, such as IMP-1 and VIM-2, with the identification of inhibitors belonging to novel scaffolds displaying a favourable degree of selectivity and sub-micromolar potency.
The screening results were expressed as activity percent. […] Overall, the primary assay robustness was good, with Robust Z Prime factor (RZ′) equal to 0.86.
In total, 256 active molecules (125 from the subset and 131 from the full set) were then assayed in dose–response at eight concentrations from 60 to 0.002 µM with interplate triplicate data points.
The blaOXA gene coding for the OXA-48 ß-lactamase, originally cloned from the K. pneumonia 11978 (a clinical isolate from Istanbul Faculty Hospital, Istanbul, Turkey) was overexpressed via a T7 expression system in E. coli BL21(DE3), and its product, native protein, (final yield of 30 mg/L of culture) was subjected to several purification steps, including ion-exchange chromatography with Q-Sepharose and 20 mM Tris-HCl buffer (pH 9.0), followed by chromatography with S-Sepharose columns and 100 mM sodium phosphate buffer (pH 5.8). Elution of the beta-lactamase was performed with a K2SO4 gradient. Peaks of beta-lactamase activity were concentrated and were dialyzed with 100 mM phosphate buffer (pH 7.0). The OXA-48 enzyme was purified to homogeneity (with a degree of purity around 95.4%.)-as measured by 12% SDS PAGE [23]. OXA-48 protein stock solution (2 mg/mL) was finally prepared in 20 mM Hepes (pH 8,1). OXA-48 β-lactamase specific activity was measured by following the hydrolysis of 100 μM nitrocefin (ε: 17,000 M-1 cm^−1 at 482 nm; Δε: 15,000 M-1 cm^−1 at 482 nm) and corresponding to 60.45 μmoles min^−1 mg^−1 of OXA-48 (kcat = 28.85 s^−1) enzyme. A MW of 28,147 g/mol, calculated from the enzyme sequence was confirmed by MALDI-TOF analysis with a Mass error of ± 2.8 Da.
The primary assay was developed to monitor the enzymatic activity of OXA-48 taking advantage of the spectroscopic properties of white microtiter plates (Optiplate-384, PerkinElmer, #6007290), as indicated by Zuck et al.. Nitrocefin is chromogenic substrate for beta-lactamases with λmax = 395 nm (yellow). Upon hydrolysis by OXA-48, nitrocefin yields (2R)-2-[(R)-carboxy[2-(thiophen-2-yl)acetamido]methyl]-5-[(E)-2-(2,4-dinitrophenyl)ethenyl]-3,6-dihydro-2H-1,3-thiazine-4-carboxylic acid, with increased absorbance properties at λmax = 495 nm. Spectroscopic features of the reaction product are exploited to quench the plate intrinsic fluorescence by absorbing the plate’s emission light, which can be monitored by exciting the reaction at 485 nm and recording the emission at 520 nm. Therefore, the primary assay for HTS was an ON-assay, in which compounds targeting OXA-48 were predicted to elicit an increase of the fluorescence signal.
The primary assay was performed in reaction buffer (20 mM Hepes pH 8.0, 12.5 mM NaCl, 0.005% BSA, 0.0005% Brij-35) in the presence of 0.0014 ng/µL OXA-48 and 25 µM nitrocefin in a final volume of 20 µL/well in 384 MTP format. […]

A further test deals with E. coli ATCC25922. The experiment in a line: MIC by broth microdilution, antibiotic-sensitive strain. The note with it: Escherichia coli. The class given is cell-based. The text has this: (§1) To evaluate the capability of restoring β-lactam susceptibility, the two most promising representatives of SC_2 (ID3) and SC_7 (ID2) were screened alone and in combination with ampicillin (AMP) and IMP against sensitive and resistant Gram-negative bacteria. Avibactam and tazobactam were also included in the MIC characterization as BLI reference compounds. Specifically, we used E. coli ATCC25922 as antibiotic-sensitive strain, while E. coli ATCC BAA-2523 and K. pneumoniae ATCC BAA-2524 as β-lactam-resistant bacteria, producing OXA-48 carbapenemase.
(§2) Test compounds and tazobactam were tested at 32 µg/mL, while avibactam was applied at 4 µg/mL. […] Both antibiotics were selected for the combination study as they can be hydrolyzed by the target OXA-48 enzyme.
(§3) MIC values were determined by the broth dilution method and interpreted using published guidelines described by Clinical and Laboratory Standards Institute (CLSI).
(§4) All BLIs were dissolved in 100% DMSO and they were tested at a fixed concentration of 32 µg/mL and 1% of DMSO final concentration. Avibactam was used as reference β-lactamase inhibitor. All antimicrobials were prepared in line with CLSI susceptibility testing standards. AMP (USP # 1033000; batch no. K1M493) was dissolved at 5.12 mg/mL, IMP (USP # 1337809; batch no. R038R0) and avibactam (Biochem # NXL 104; batch no. 20180726) were dissolved at 1.28 mg/mL in the respective solvents recommended by CLSI (2). Solutions at 4X the final concentrations of the test range were made in Cation adjusted Mueller-Hinton broth (CA-MHB, BD # 212322; batch no. 6117994; Expiry date: 29.02.2020) by serial dilutions, and then diluted 2-fold with CA-MHB (for antimicrobials alone), or with the BLIs/avibactam (for combinations of new/reference inhibitors and antimicrobials). Moreover, all BLIs were tested alone at a fixed concentration of 32 μg/mL. The final concentration of DMSO in the test tubes was 1% for each different combination.
(§5) 50 μL of each well were then transferred from the masterblock into 96-well plates to whom were then added 50 μL of the final inoculum. MIC tests were performed by broth microdilution in line with CLSI susceptibility testing standards. Bacterial inocula were prepared at ca. 1 × 10^6 CFU/mL by diluting 100-fold a 0.5 McFarland suspension in CA-MHB with TES (TREK Diagnostic Systems, Product code: T3462; Batch: 356347; Expiry date: 12-Jun-2019). 50 μL of antibacterial solutions at 2 × the final concentrations were diluted 2-fold with 50 μL of inoculum to give a final inoculum of ca. 5 × 10^5 CFU/mL and desired test concentrations of antibacterial agents. Test plates were incubated according to CLSI guidelines and read visually. MIC values corresponded to the first well with no visible growth.
For orientation: In broth dilution the organism is exposed to a series of concentrations in liquid medium.

The test system of another test is E. coli ATCC BAA-2523. The experiment in a line: MIC by broth microdilution, β-lactam-resistant strain producing OXA-48. In kind it is cell-based, Escherichia coli. The note with it: for MIC: Escherichia coli.
Excerpt: as §1, §2, §3, §4, §5

Test [1] has as its system K. pneumoniae ATCC BAA-2524. Described as above. The class given is cell-based, Klebsiella pneumoniae. The note with it: for MIC: Klebsiella pneumoniae.
Excerpt: as §1, §2, §3, §4, §5

Regarding `O=C(O)c1ccc(/C=N/n2c(S)nnc2-c2ccc(Cl)cc2)cc1` [ID3], the AC50 at OXA-48 was 723 nM and 720 nM. Further, the minimum inhibitory concentration (MIC) in the test on E. coli ATCC25922 (no β-lactam, BLI tested at 32 µg/mL, read-out: MIC, BLI alone) was more than 32 µg/mL; in the test with E. coli ATCC BAA-2523 (ATCCBAA2523, no β-lactam, BLI tested at 32 µg/mL, read-out: MIC, BLI alone), more than 32 µg/mL; in test [1] (ATCCBAA2524, no β-lactam, BLI tested at 32 µg/mL, read-out: MIC, BLI alone), more than 32 µg/mL.
With `CC1(C)S[C@@H]2[C@H](NC(=O)[C@H](N)c3ccccc3)C(=O)N2[C@H]1C(=O)O` [AMP, ampicillin], the MIC in the test with E. coli ATCC25922 (β-lactam alone, read-out: MIC β-lactam) is 4 µg/mL; in the test on E. coli ATCC BAA-2523 (ATCCBAA2523, β-lactam alone, read-out: MIC β-lactam) it was more than 512 µg/mL; in test [1] (ATCCBAA2524, β-lactam alone, read-out: MIC β-lactam) it was more than 512 µg/mL. Also, the “MIC β-lactam” value (with E. coli ATCC BAA-2523 (β-lactam alone); in test [1] (β-lactam alone)) was more than 512 µg/mL in each case.
